Laboratory results reported in patent US20250109112A1, “HERBICIDAL COMPOUNDS” (SYNGENTA CROP PROTECTION AG, priority 2022, published 2025).

How the values were obtained:
Assay type in all cases: in vivo
Conditions in all cases: 250 g/ha, evaluated after 13 days
[1] = test system: Ipomoea hederacea (IPOHE); assay: Pre-emergence biological efficacy, IPOHE
Protocol: (§1) Seeds of weeds and/or crops were sown in standard soil in pots (Amaranthus palmeri (AMAPA), Lolium perenne (LOLPE), Euphorbia heterophylla (EPHHL), Ipomoea hederacea (IPOHE), Setaria faberi (SETFA), Echinochloa crus-galli (ECHCG)). After cultivation for one day under controlled conditions in a glasshouse (at 24/19° C., day/night; 16 hours light), the plants were sprayed with an aqueous spray solution derived from the formulation of the technical active ingredient in a small amount of acetone and a special solvent and emulsifier mixture referred to as IF50 (11.12% Emulsogen EL360 TM+44.44% N-methylpyrrolidone+44.44% Dowanol DPM glycol ether), to create a 50 g/l solution which was then diluted using 0.2% Genapol XO80 as diluent to give the desired final dose of test compound.
(§2) The test plants were then grown under controlled conditions in the glasshouse (at 24/18° C., day/night; 15 hours light; 50% humidity) and watered twice daily. After 13 days the test was evaluated (100=total damage to plant; 0=no damage to plant).

[2] = test system: Amaranthus palmeri (AMAPA); assay: Post-emergence biological efficacy, AMAPA
Protocol: as §1, with “Chenopodium album (CHEAL),” for “Lolium perenne (LOLPE),”, “(IPOHE), Eleusine indica (ELEIN), Lolium perenne (LOLPE), Digitaria sanguinalis (DIGSA),” for “(IPOHE),”, “14 days” for “one day”
as §2

Lolium perenne (LOLPE) [3] = assay: Post-emergence biological efficacy, LOLPE
Protocol: as §1, with “Chenopodium album (CHEAL),” for “Lolium perenne (LOLPE),”, “(IPOHE), Eleusine indica (ELEIN), Lolium perenne (LOLPE), Digitaria sanguinalis (DIGSA),” for “(IPOHE),”, “14 days” for “one day”
as §2

[4] = test system: Euphorbia heterophylla (EPHHL); assay: Pre-emergence biological efficacy, EPHHL
Protocol: as §1, §2

[5] = test system: Echinochloa crus-galli (ECHCG); assay: Post-emergence biological efficacy, ECHCG
Protocol: as §1, with “Chenopodium album (CHEAL),” for “Lolium perenne (LOLPE),”, “(IPOHE), Eleusine indica (ELEIN), Lolium perenne (LOLPE), Digitaria sanguinalis (DIGSA),” for “(IPOHE),”, “14 days” for “one day”
as §2

[6] = test system: Digitaria sanguinalis (DIGSA); assay: Post-emergence biological efficacy, DIGSA
Protocol: as §1, with “Chenopodium album (CHEAL),” for “Lolium perenne (LOLPE),”, “(IPOHE), Eleusine indica (ELEIN), Lolium perenne (LOLPE), Digitaria sanguinalis (DIGSA),” for “(IPOHE),”, “14 days” for “one day”
as §2

Eleusine indica (ELEIN) = assay: Post-emergence biological efficacy, ELEIN
Protocol: as §1, with “Chenopodium album (CHEAL),” for “Lolium perenne (LOLPE),”, “(IPOHE), Eleusine indica (ELEIN), Lolium perenne (LOLPE), Digitaria sanguinalis (DIGSA),” for “(IPOHE),”, “14 days” for “one day”
as §2

[7] = test system: Amaranthus palmeri (AMAPA); assay: Pre-emergence biological efficacy, AMAPA
Protocol: as §1, §2

Lolium perenne (LOLPE) [8] = assay: Pre-emergence biological efficacy, LOLPE
Protocol: as §1, §2

[9] = test system: Euphorbia heterophylla (EPHHL); assay: Post-emergence biological efficacy, EPHHL
Protocol: as §1, with “Chenopodium album (CHEAL),” for “Lolium perenne (LOLPE),”, “(IPOHE), Eleusine indica (ELEIN), Lolium perenne (LOLPE), Digitaria sanguinalis (DIGSA),” for “(IPOHE),”, “14 days” for “one day”
as §2

[10] = test system: Echinochloa crus-galli (ECHCG); assay: Pre-emergence biological efficacy, ECHCG
Protocol: as §1, §2

Setaria faberi (SETFA) [11] = assay: Post-emergence biological efficacy, SETFA
Protocol: as §1, with “Chenopodium album (CHEAL),” for “Lolium perenne (LOLPE),”, “(IPOHE), Eleusine indica (ELEIN), Lolium perenne (LOLPE), Digitaria sanguinalis (DIGSA),” for “(IPOHE),”, “14 days” for “one day”
as §2

[12] = test system: Chenopodium album (CHEAL); assay: Post-emergence biological efficacy, CHEAL
Protocol: as §1, with “Chenopodium album (CHEAL),” for “Lolium perenne (LOLPE),”, “(IPOHE), Eleusine indica (ELEIN), Lolium perenne (LOLPE), Digitaria sanguinalis (DIGSA),” for “(IPOHE),”, “14 days” for “one day”
as §2

[13] = test system: Ipomoea hederacea (IPOHE); assay: Post-emergence biological efficacy, IPOHE
Protocol: as §1, with “Chenopodium album (CHEAL),” for “Lolium perenne (LOLPE),”, “(IPOHE), Eleusine indica (ELEIN), Lolium perenne (LOLPE), Digitaria sanguinalis (DIGSA),” for “(IPOHE),”, “14 days” for “one day”
as §2

Setaria faberi (SETFA) [14] = assay: Pre-emergence biological efficacy, SETFA
Protocol: as §1, §2

Structure (SMILES)	damage to plant (100=total damage; 0=no damage), IPOHE [1]	damage to plant (100=total damage; 0=no damage), AMAPA [2]	damage to plant (100=total damage; 0=no damage), LOLPE (Lolium perenne (LOLPE) [3])	damage to plant (100=total damage; 0=no damage), EPHHL [4]	damage to plant (100=total damage; 0=no damage), ECHCG [5]	damage to plant (100=total damage; 0=no damage), DIGSA [6]	damage to plant (100=total damage; 0=no damage), ELEIN (Eleusine indica (ELEIN))	damage to plant (100=total damage; 0=no damage), AMAPA [7]	damage to plant (100=total damage; 0=no damage), LOLPE (Lolium perenne (LOLPE) [8])	damage to plant (100=total damage; 0=no damage), EPHHL [9]	damage to plant (100=total damage; 0=no damage), ECHCG [10]	damage to plant (100=total damage; 0=no damage), SETFA (Setaria faberi (SETFA) [11])	damage to plant (100=total damage; 0=no damage), CHEAL [12]	damage to plant (100=total damage; 0=no damage), IPOHE [13]	damage to plant (100=total damage; 0=no damage), SETFA (Setaria faberi (SETFA) [14])
COC(=O)CCOC(=O)C(C)Sc1cc(-n2c(=O)n(C)c(=S)n(C)c2=O)c(F)cc1Cl (stereo not drawn) [Compound 9-245, (3-methoxy-3-oxo-propyl) 2-[2-chloro-5-(3,5-dimethyl-2,6-dioxo-4-thioxo-1,3,5-triazinan-1-yl)-4-fluoro-phenyl]sulfanylpropanoate]	90	100	100	100	70	30	80	100	80	90	80	40	100	100	100
COC(=O)CCNC(=O)C(C)Sc1cc(-n2c(=O)n(C)c(=S)n(C)c2=O)c(F)cc1Cl (stereo not drawn) [Compound 9-272, methyl 3-[2-[2-chloro-5-(3,5-dimethyl-2,6-dioxo-4-thioxo-1,3,5-triazinan-1-yl)-4-fluoro-phenyl]sulfanylpropanoylamino]propanoate]	100	80	100	100	40	70	80	100	90	90	80	90	90	100	100
